Source: patent publication US9956204B2, “Composition for exterminating scuticociliates in fish including mebendazole” (NATIONAL INSTITUTE OF FISHERIES SCIENCE, priority 2016, dated 2018)

How the values were obtained:
scuticociliates [1] = test: Scuticociliates extermination effect of candidate substances in MEM medium; format: cell-based; details: MEM medium
Method: CHSE-214 cell line into which scuticociliates were inoculated was cultured in advance. The CHSE-214 cell line was cultured in an incubator using an MEM medium at 22° C. Scuticociliates inoculated into the cell line proliferated for 3 days by which the number reaches to be capable of analyzing in vitro anti-scuticociliates effect. Scuticociliates that feed on the cell line and sufficiently grow were mixed with the candidate substance and the activity of scuticociliates was measured.
In order to analyze the antiparasitic activity of the above 19 types of candidate substances of scuticociliates extermination drugs, scuticociliates were cultured for 3 days, and 100 μl (1×10^5) was dispensed into each well of 96 wells. The candidate substances were diluted by each concentration and the final volume was dispensed into 100 μl. Thereafter, the two were mixed and finally made into 200 μl.

scuticociliates [2] = test: Scuticociliates extermination effect of candidate substances in seawater medium; format: cell-based; details: seawater medium, 4 hour
Method: For this, scuticociliates were cultured in CHSE-214 cell line (using MEM medium), and then scuticociliates were collected and centrifuged with sterilized seawater or artificial seawater (20‰) to replace them with a seawater medium. Each of 100 μl (1×10^5) was dispensed into each well of 96 wells, followed by further culture for 30 minutes. The candidate substances diluted in seawater to have a volume of 100 μl per each concentration were mixed with scuticociliates to have the final volume of 200 μl and cultured for 4 hour.

| Compound | Survival or Death of scuticociliates (activity and shape, microscope) (scuticociliates [1]; Dosage 10 ppm) | Survival or Death of scuticociliates (activity and shape, microscope) (scuticociliates [1]; Dosage 50 ppm) | Survival or Death of scuticociliates (activity and shape, microscope) (scuticociliates [1]; Dosage 100 ppm) | Survival or Death of scuticociliates (activity and shape, microscope) (scuticociliates [1]; Dosage 200 ppm) | Survival or Death of scuticociliates (activity and shape, microscope) (scuticociliates [1]; Dosage 400 ppm) | Survival or Death of scuticociliates (activity and shape, microscope) (scuticociliates [1]; Dosage 500 ppm) | Survival or Death of scuticociliates (activity and shape, microscope) (scuticociliates [2]; Dosage 500 ppm) | Survival or Death of scuticociliates (activity and shape, microscope) (scuticociliates [2]; Dosage 800 ppm) | Survival or Death of scuticociliates (activity and shape, microscope) (scuticociliates [2]; Dosage 900 ppm) | Survival or Death of scuticociliates (activity and shape, microscope) (scuticociliates [2]; Dosage 1000 ppm) | Survival or Death of scuticociliates (activity and shape, microscope) (scuticociliates [1]; Dosage 600 ppm) | Survival or Death of scuticociliates (activity and shape, microscope) (scuticociliates [1]; Dosage 800 ppm) | Survival or Death of scuticociliates (activity and shape, microscope) (scuticociliates [1]; Dosage 1000 ppm) | Survival or Death of scuticociliates (activity and shape, microscope) (scuticociliates [2]; Dosage 50 ppm) | Survival or Death of scuticociliates (activity and shape, microscope) (scuticociliates [2]; Dosage 100 ppm) | Survival or Death of scuticociliates (activity and shape, microscope) (scuticociliates [2]; Dosage 600 ppm) | Survival or Death of scuticociliates (activity and shape, microscope) (scuticociliates [2]; Dosage 700 ppm) | further results |
| --- | --- | --- | --- | --- | --- | --- | --- | --- | --- | --- | --- | --- | --- | --- | --- | --- | --- | --- |
| CC[C@H](C)[C@H]1O[C@]2(C=C[C@@H]1C)C[C@@H]1C[C@@H](C/C=C(\C)[C@@H](O[C@H]3C[C@H](OC)[C@@H](O[C@H]4C[C@H](OC)[C@@H](O)[C@H](C)O4)[C@H](C)O3)[C@@H](C)/C=C/C=C3\CO[C@@H]4[C@H](O)C(C)=C[C@@H](C(=O)O1)[C@]34O)O2 [Abamectin] | Survival | Survival | Survival | Δ | Death | Death | Survival | Death | Death | Death | – | – | – | – | – | – | – | Survival or Death of scuticociliates (activity and shape, microscope) (scuticociliates [1]; Dosage 20 ppm): Survival; Survival or Death of scuticociliates (activity and shape, microscope) (scuticociliates [1]; Dosage 150 ppm): Survival; Survival or Death of scuticociliates (activity and shape, microscope) (scuticociliates [2]; Dosage 1500 ppm): Death; Survival or Death of scuticociliates (activity and shape, microscope) (scuticociliates [2]; Dosage 2000 ppm): Death |
| CCCSc1ccc2nc(NC(=O)OC)[nH]c2c1 [Albendazole] | Survival | Survival | Survival | Survival | Survival | Survival | Survival | Δ | Death | Death | Survival | Δ | Death | Survival | Survival | Survival | Survival | Survival or Death of scuticociliates (activity and shape, microscope) (scuticociliates [1]; Dosage 300 ppm): Survival; Survival or Death of scuticociliates (activity and shape, microscope) (scuticociliates [1]; Dosage 700 ppm): Survival; Survival or Death of scuticociliates (activity and shape, microscope) (scuticociliates [1]; Dosage 900 ppm): Death; Survival or Death of scuticociliates (activity and shape, microscope) (scuticociliates [2]; Dosage 10 ppm): Survival; Survival or Death of scuticociliates (activity and shape, microscope) (scuticociliates [2]; Dosage 200 ppm): Survival; Survival or Death of scuticociliates (activity and shape, microscope) (scuticociliates [2]; Dosage 300 ppm): Survival; Survival or Death of scuticociliates (activity and shape, microscope) (scuticociliates [2]; Dosage 400 ppm): Survival |
| O=C(OCc1ccccc1)c1ccccc1 [Benzyl benzonate] | Survival | Survival | Survival | Survival | – | Survival | Δ | Death | – | – | Survival | Δ | Δ | Survival | Survival | Death | Death | – |
